Source: patent publication US5770383A, “Tricyclic retinoids, methods for their production and use” (Ligand Pharmaceuticals, Inc., priority 1995, dated 1998)

Assays:
RAR and RXR receptors = experiment: Co-transfection assay, RARs and RXRs taken together; type: cell-based
Description: (§1) Utilizing the "cis-trans" or "co-transfection" assay described by Evans et al., Science, 240:889-95 (May 13, 1988), the disclosure of which is herein incorporated by reference, the retinoid compounds of the present invention were tested and found to have strong, specific activity as either selective RAR agonists, selective RXR agonists, or as pan-agonist activators of both RAR and RXR receptors. This assay is described in further detail in U.S. Pat. Nos. 4,981,784 and 5,071,773, the disclosures of which are incorporated herein by reference.
(§2) The co-transfection assay provides a method for identifying functional agonists which mimic, or antagonists which inhibit, the effect of native hormones, and quantifying their activity for responsive IR proteins. In this regard, the co-transfection assay mimics an in vivo system in the laboratory. Importantly, activity in the co-transfection assay correlates very well with known in vivo activity, such that the co-transfection assay functions as a qualitative and quantitative predictor of a tested compounds Ln vivo pharmacology. See, e.g., T. Berger et al. 41 J. Steroid Biochem. Molec. Biol. 733 (1992), the disclosure of which is herein incorporated by reference.
(§3) In the co-transfection assay, a cloned cDNA for an IR (e.g., human RARα, RARβ, RXRγ) under the control of a constitutive promoter (e.g., the SV 40 promoter) is introduced by transfection (a procedure to induce cells to take up foreign genes) into a background cell substantially devoid of endogenous IRs. This introduced gene directs the recipient cells to make the IR protein of interest. A second gene is also introduced (co-transfected) into the same cells in conjunction with the IR gene. This second gene, comprising the cDNA for a reporter protein, such as firefly luciferase (LUC), controlled by an appropriate hormone responsive promoter containing a hormone response element (HRE). This reporter plasmid functions as a reporter for the transcription-modulating activity of the target IR. Thus, the reporter acts as a surrogate for the products (mRNA then protein) normally expressed by a gene under control of the target receptor and its native hormone.
(§4) The co-transfection assay can detect small molecule agonists or antagonists of target IRs. Exposing the transfected cells to an agonist ligand compound increases reporter activity in the transfected cells. This activity can be conveniently measured, e.g., by increasing luciferase production, which reflects compound-dependent, IR-mediated increases in reporter transcription. […] . Increasing concentrations of a suspected antagonist will decrease the reporter signal (e.g., luciferase production). The co-transfection assay is therefore useful to detect both agonists and antagonists of specific IRs. Furthermore, it determines not only whether a compound interacts with a particular IR, but whether this interaction mimics (agonizes) or blocks (antagonizes) the effects of the native regulatory molecules on target gene expression, as well as the specificity and strength of this interaction.
To determine RAR and/or RXR agonist activity of the compounds of the present invention, the CV-1 cells were transiently transfected by calcium phosphate coprecipitation according to the procedure of Berger et al., 41 J.Steroid Biochem. Mol. Biol., 733 (1992) with the following receptor expressing plasmids: pRShRARα: Giguere et al., 330 Nature, 624 (1987); pRShRARβ and pRShRARγ, Ishikawa et al., 4 Mol. Endocrin., 837 (1990); pRShRXRα, Mangelsdorf et al., 345 Nature, 224 (1990); and pRSmRXRβ and pRSmRXRγ, Mangelsdorf et al., 6 Genes & Devel., 329 (1992), the disclosures of which are herein incorporated by reference.

TPA induction of ODC = settings: literature; cited from earlier work
AML-193 cell line = experiment: Incorporation of 3H-thymidine, AML-193; settings: 96 h, read-out: TdR IC50
RARs = experiment: Co-transfection assay, RARs taken together; type: cell-based; settings: Table 1
Description: as §1, §2, §3
as §4, with “Furthermore, it determines not only whether a compound interacts with a particular IR, but whether this interaction mimics (agonizes) or blocks (antagonizes) the effects of the native regulatory molecules on target gene expression, as well as the specificity and strength of this interaction.” left out

SMILES	selectivity / potency profile on RARs and RXRs in words (RAR and RXR receptors)	effect on ODC activity, in words (TPA induction of ODC)	IC50 (AML-193 cell line) [pM]	RAR activity in words (RARs)
CC(/C=C/C=C1/CC(C)(C)Oc2cc3c(cc21)C(C)(C)CCC3(C)C)=C\C(=O)O [Compound 104b, (2E,4E)-3-Methyl-6-(2,3,6,7,8,9-hexahydro-2,2,6,6,9,9-hexamethylbenzo[b]-chromen-4-ylidene)-hexa-2,4-dienoic acid]	potent and selective RXR compound			
CCCCCCCCCCCCCC(=O)O[C@@H]1[C@@H](C)[C@@]2(O)[C@@H](C=C(CO)C[C@]3(O)C(=O)C(C)=C[C@@H]23)[C@@H]2C(C)(C)[C@]12OC(C)=O [TPA, 12-0-tetradecanoylphorbor-13-acetate]		induces ODC activity		
C/C(=C\c1ccc(C(=O)O)cc1)c1ccc2c(c1)C(C)(C)CCC2(C)C [TTNPB, (E)-4-[2-(5,6,7,8-tetrahydro-5,5,8,8-tetramethyl-2-napthalenyl)-1-propenyl]benzoic acid]			100	
CC(/C=C/C=C1\CCOc2cc3c(cc21)C(C)(C)CCC3(C)C)=C\C(=O)O [Compound 119b, (2E,4E)-3-Methyl-6-[(E)-2,3,6,7,8,9-hexahydro-6,6,9,9-tetramethyl-benzo[g]chromen-4-ylidene]hexa-2,4-dienoic acid]	RAR selective			extremely potent RAR active
CC(/C=C/C=C1\CCCc2cc3c(cc21)C(C)(C)CCC3(C)C)=C\C(=O)O [Compound 109b, (2E,4E)-3-Methyl-6-[(E)-3,4,5,6,7,8-hexahydro-5,5,8,8-tetramethyl-2H-anthracen-1-ylidene]hexa-2,4-dienoic acid]	RAR selective			extremely potent RAR active
CC1=C(/C=C/C(C)=C/C=C/C(C)=C/C(=O)O)C(C)(C)CCC1 [retinoic acid]		inhibits this induction of ODC by TPA		
CC(/C=C/C=C1/CCCc2cc3c(cc21)C(C)(C)CCC3(C)C)=C\C(=O)O [Compound 101b, (2E,4E)-3-Methyl-6-[(Z)-3,4,5,6,7,8-hexahydro-5,5,8,8-tetramethyl-2H-anthracen-1-ylidene]hexa-2,4-dienoic acid]	superior potency profiles to that of the known RXR active pan-agonist compound 9-cis retinoic acid			extremely potent RAR active
CC(/C=C/C=C1/CCOc2cc3c(cc21)C(C)(C)CCC3(C)C)=C\C(=O)O [Compound 144b]	superior potency profiles to that of the known RXR active pan-agonist compound 9-cis retinoic acid			extremely potent RAR active
CC(/C=C/CC1CCCc2cc3c(cc21)C(C)(C)CCC3(C)C)=C\C(=O)O (racemic) [Compound 124b, (2E,4E)-3-Methyl-6-(1,2,3,4,5,6,7,8-octahydro-5,5,8,8-tetramethylanthracen-1-yl)hexa-2,4-dienoic acid]	superior potency profiles to that of the known RXR active pan-agonist compound 9-cis retinoic acid			
